Measurements taken from the Kinase Knowledgebase extract (Sharma et al. 2016).
pIC50: −log10 of the molar value.

Columns and labels:
EGFR = EGFR (UniProt P00533)
EGFR (murine) = EGFR (murine) (UniProt P00533); conditions: nih3t3
EGFR (murine), sequence (P00533 whole entry, looked up): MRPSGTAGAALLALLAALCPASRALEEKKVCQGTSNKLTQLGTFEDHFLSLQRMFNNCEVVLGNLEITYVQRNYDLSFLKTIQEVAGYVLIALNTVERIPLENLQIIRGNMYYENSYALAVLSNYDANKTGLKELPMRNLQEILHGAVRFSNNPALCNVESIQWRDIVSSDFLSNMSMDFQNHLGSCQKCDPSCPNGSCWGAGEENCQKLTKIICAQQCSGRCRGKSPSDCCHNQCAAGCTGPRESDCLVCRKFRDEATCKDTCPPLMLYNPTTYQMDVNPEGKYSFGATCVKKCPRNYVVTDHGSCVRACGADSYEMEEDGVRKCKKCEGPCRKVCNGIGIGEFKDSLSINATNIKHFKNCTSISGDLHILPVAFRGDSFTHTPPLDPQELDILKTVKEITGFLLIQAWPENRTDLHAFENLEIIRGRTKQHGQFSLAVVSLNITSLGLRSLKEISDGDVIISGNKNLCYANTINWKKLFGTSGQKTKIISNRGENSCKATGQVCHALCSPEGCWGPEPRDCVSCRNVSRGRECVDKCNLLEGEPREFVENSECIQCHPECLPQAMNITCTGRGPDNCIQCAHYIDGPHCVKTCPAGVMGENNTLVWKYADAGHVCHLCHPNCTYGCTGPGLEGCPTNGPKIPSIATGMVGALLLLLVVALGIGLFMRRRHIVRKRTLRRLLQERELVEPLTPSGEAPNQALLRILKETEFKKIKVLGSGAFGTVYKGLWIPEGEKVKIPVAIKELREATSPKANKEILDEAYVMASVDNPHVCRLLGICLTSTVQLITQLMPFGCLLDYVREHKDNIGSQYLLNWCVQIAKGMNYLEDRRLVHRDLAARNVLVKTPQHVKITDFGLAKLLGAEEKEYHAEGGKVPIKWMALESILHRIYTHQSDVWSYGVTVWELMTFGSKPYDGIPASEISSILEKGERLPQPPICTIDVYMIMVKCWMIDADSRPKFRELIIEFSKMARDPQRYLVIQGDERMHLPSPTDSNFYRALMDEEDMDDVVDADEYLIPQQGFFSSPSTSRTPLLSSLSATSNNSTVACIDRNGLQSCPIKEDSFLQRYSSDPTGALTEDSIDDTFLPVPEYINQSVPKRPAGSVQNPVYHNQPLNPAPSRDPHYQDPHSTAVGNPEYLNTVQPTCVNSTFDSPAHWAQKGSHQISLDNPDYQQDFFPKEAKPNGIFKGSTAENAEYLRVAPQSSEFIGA

EGFR, sequence (P00533 whole entry, looked up): as above

Compound | pIC50 (EGFR) | pIC50 (EGFR (murine))
O=C1Cc2c(CCOc3cccc(-c4ccccc4)c3)cccc2N1 | < 4.00 | –
O=C1Nc2cccc(CCO)c2C1Cc1ccccc1 (configuration not stated) | < 4.00 | –
O=C1Nc2cccc(CCO)c2/C1=C\c1ccc(Br)cc1 | < 4.00 | –
Cc1ccc(O)c(/C=C2\C(=O)Nc3cccc(CCO)c32)n1 | < 4.00 | < 4.30
COc1ccc(-c2cc(CC3C(=O)Nc4ccccc43)c(O)cc2OC)cc1 (configuration not stated) | < 4.00 | –
COc1c(C(C)C)cc(CC2C(=O)Nc3ccccc32)cc1C(C)C (configuration not stated) | < 4.00 | < 4.30
CC(=O)Nc1ccc2c(c1)NC(=O)C2Cc1ccc(OCCN2CCOCC2)c(C2CCCCC2)c1 (configuration not stated) | < 4.00 | –
Cc1[nH]c(/C=C2\C(=O)Nc3cccc(CCO)c32)c(C)c1CCCN(C)C | < 4.00 | 4.60
O=C1Nc2cc(-c3ccccc3)ccc2C1Cc1cccc(F)c1O (configuration not stated) | < 4.00 | < 4.30
O=C1Cc2c(CCOC(=O)Nc3ccccc3)cccc2N1 | < 4.00 | –
Cc1cccc2c1C(Cc1ccc3[nH]ccc3c1)C(=O)N2 (configuration not stated) | < 4.00 | < 4.30
O=C1Nc2cc(-c3cccnc3)ccc2/C1=C\c1ccccc1O | < 4.00 | –
COc1ccc(OCCc2cccc3c2CC(=O)N3)cc1 | < 4.00 | –
COc1ccc(-c2ccc3c(c2)NC(=O)C3Cc2[nH]c(C)c(CCCN(C)C)c2C)cc1 (configuration not stated) | < 4.00 | –
COc1ccc(CC2C(=O)Nc3ccc(F)cc32)cc1C1CCCC1 (configuration not stated) | < 4.00 | –
Cc1[nH]c(/C=C2/C(=O)Nc3cc(-c4cccs4)ccc32)c(C)c1CCCN(C)C | < 4.00 | –
Cc1[nH]c(CC2C(=O)Nc3ccccc32)c(C)c1CCCN(C)C (configuration not stated) | < 4.00 | < 4.30
O=C(Nc1ccc2c(c1)NC(=O)C2Cc1cc(Cl)ccc1O)C1CCCC1 (configuration not stated) | < 4.00 | –
Cc1[nH]c(/C=C2/C(=O)Nc3cc(-c4cccnc4)ccc32)c(C)c1CCCN(C)C | 4.92 | –
CC(C)c1ccc(OCCc2cccc3c2CC(=O)N3)cc1 | < 4.00 | –
O=C1Cc2c(CCOC(=S)Nc3ccccc3)cccc2N1 | < 4.00 | –

Compound | pIC50 (EGFR) | pIC50 (EGFR (murine))
O=C(Nc1ccc2c(c1)NC(=O)C2Cc1cc(Cl)cc(Cl)c1O)C1CCCC1 (configuration not stated) | < 4.00 | –
Cc1[nH]c(/C=C2\C(=O)Nc3cccc(CCOc4cccc(C(C)C)c4)c32)c(C)c1CCCN(C)C | < 4.00 | –
COc1ccc(CC2C(=O)Nc3ccc(CCN4CCOCC4)cc32)cc1-c1ccsc1 (configuration not stated) | < 4.00 | < 4.30
O=C1Nc2cc(-c3cccs3)ccc2/C1=C\c1ccccc1O | < 4.00 | –
O=C1Nc2cccc(CCO)c2C1Cc1ccc(Br)cc1 (configuration not stated) | < 4.00 | –
COc1ccc(/C=C2/C(=O)Nc3cc(-c4ccsc4)ccc32)cc1-c1cccs1 | < 4.00 | –
CC(C)(C)c1cc(CC2C(=O)Nc3ccc(Cl)cc32)cc(Br)c1O (configuration not stated) | < 4.00 | –
COc1ccc(CC2C(=O)Nc3cc(NC(C)=O)ccc32)cc1-c1cccs1 (configuration not stated) | < 4.00 | < 4.30
COCCc1cccc2c1CC(=O)N2 | < 4.00 | –
CCNC(=O)OCCc1cccc2c1CC(=O)N2 | < 4.00 | –
COc1ccc(CC2C(=O)Nc3cc(-c4ccccc4)ccc32)c(O)c1 (configuration not stated) | < 4.00 | < 4.30
Cc1[nH]c(/C=C2\C(=O)Nc3cccc(CCOc4ccc(C(C)C)cc4)c32)c(C)c1CCC(=O)O | < 4.00 | < 4.30
O=C1Nc2cc(-c3ccccc3)ccc2C1Cc1cc(Br)ccc1O (configuration not stated) | < 4.00 | –
O=C1Cc2c(CCOC(=O)NS(=O)(=O)c3ccccc3)cccc2N1 | < 4.00 | –
CC(C)NC(=O)OCCc1cccc2c1CC(=O)N2 | < 4.00 | –
CC(C)(C)NC(=O)OCCc1cccc2c1CC(=O)N2 | < 4.00 | –
O=C1Cc2c(CCOC(=O)NC3CCCCC3)cccc2N1 | < 4.00 | –
COc1ccc(/C=C2/C(=O)Nc3cc(-c4cccs4)ccc32)cc1-c1cccs1 | < 4.00 | –
COc1ccc(/C=C2/C(=O)Nc3cc(-c4cccnc4)ccc32)cc1-c1cccs1 | < 4.00 | –
COc1cc(C)c(CC2C(=O)Nc3ccccc32)cc1C(C)C (configuration not stated) | < 4.00 | –
O=C1Nc2ccc(F)cc2C1Cc1ccc(O)c(C2CCCC2)c1 (configuration not stated) | < 4.00 | < 4.30

Compound | pIC50 (EGFR) | pIC50 (EGFR (murine))
COc1ccc(/C=C2\C(=O)Nc3cccc(CCO)c32)cc1-c1cccs1 | < 4.00 | –
CC(C)c1cccc(OCCc2cccc3c2CC(=O)N3)c1 | < 4.00 | –
O=C1Cc2c(CCOC(=O)Nc3ccccc3-c3ccccc3)cccc2N1 | < 4.00 | –
Cc1[nH]c(CC2C(=O)Nc3ccc(Br)cc32)c(C)c1CCCN(C)C (configuration not stated) | < 4.00 | –
COc1ccccc1-c1ccc2c(c1)NC(=O)C2Cc1[nH]c(C)c(CCCN(C)C)c1C (configuration not stated) | < 4.00 | –
Cc1cccc(CC2C(=O)Nc3cccc(CCO)c32)n1 (configuration not stated) | < 4.00 | < 4.30
Cc1cccc(/C=C2\C(=O)Nc3cccc(CCO)c32)n1 | < 4.00 | –
CCOCCc1cccc2c1CC(=O)N2 | < 4.00 | –
COc1cccc(-c2ccc3c(c2)NC(=O)C3Cc2ccccc2O)c1 (configuration not stated) | < 4.00 | < 4.30
O=C1Nc2ccccc2C1Cc1ccc2[nH]ccc2c1 (configuration not stated) | < 4.00 | < 4.30
CC(C)c1cc(CC2C(=O)Nc3ccc(Cl)cc32)cc(C(C)C)c1OCCN1CCOCC1 (configuration not stated) | < 4.00 | –
O=C1Nc2cccc(CCO)c2/C1=C/c1ccc2[nH]ccc2c1 | < 4.00 | –
O=C1Cc2c(CCOc3cncc(Cl)c3)cccc2N1 | < 4.00 | –
O=C1Nc2cc(-c3ccsc3)ccc2/C1=C\c1ccccc1O | < 4.00 | –
O=C1Nc2cccc(CCO)c2/C1=C/c1ccccn1 | < 4.00 | 5.52
COc1ccc(/C(=C2/C(=O)Nc3ccccc32)c2[nH]c(C)cc2C)cc1 | – | < 4.30
CC(C)c1ccccc1OCCc1cccc2c1CC(=O)N2 | < 4.00 | –
COc1cccc(-c2ccc3c(c2)NC(=O)C3Cc2[nH]c(C)c(CCCN(C)C)c2C)c1 (configuration not stated) | 4.31 | –
Cc1[nH]c(CC2C(=O)Nc3ccc(Cl)cc32)c(C)c1CCCN(C)C (configuration not stated) | < 4.00 | –
COc1ccc2c(c1)NC(=O)C2Cc1ccc(OC)c(-c2ccsc2)c1 (configuration not stated) | < 4.00 | –
